In patent US5721245A, “4-[3-indolyl]-1H-pyrrolone” (Hoffmann-La Roche Inc., priority 1989, dated 1998):
Structures can show the parent of a compound that is named as a salt.

Biological target: protein kinase C
Assay: Inhibition of protein kinase C in vitro (protein kinase-induced incorporation of 32P from [γ-32P]ATP into histone)
Assay type: biochemical
Details: concentration which reduces by 50% the protein kinase-induced incorporation of 32P from [γ-32P]ATP into histone
From the text: The IC50 FIGURES in the following Table are that concentration of test compound which reduces by 50% the protein kinase-induced incorporation of ^32 P from [γ-^32 P]ATP into histone.

SMILES	IC50
CN(C)CC1Cc2c(C3=C(c4cn(C)c5ccccc45)C(=O)NC3=O)c3ccccc3n2C1 (centres unmarked) [3-[2,3-dihydro-2-(dimethylaminomethyl)-1H-pyrrolo[1,2-a]indol-9-yl]-4-(1-methyl-3-indolyl)-1H-pyrrole-2,5-dione trifluoromethanesulphonate]	20 nM
Cn1cc(C2=C(c3c4n(c5ccccc35)CCN(C(=O)CN)C4)C(=O)NC2=O)c2ccccc21 [3-[2-(aminoacetyl)-1,2,3,4-tetrahydropyrazino[1,2-a]indol-10-yl]-4-(1-methyl-3-indolyl)-1H-pyrrole-2,5-dione hydrochloride]	50 nM
Cn1cc(C2=C(c3c4n(c5ccccc35)CCC(CN3CCCCC3)C4)C(=O)NC2=O)c2ccccc21 (centres unmarked) [3-[6,7,8,9-tetrahydro-8-[(1-piperidino)methyl]pyrido[1,2-a]indol-10-yl]-4-(1-methyl-3-indolyl)-1H-pyrrole-2,5-dione]	30 nM
Cn1cc(C2=C(c3c4n(c5ccccc35)CC(CCN)CC4)C(=O)NC2=O)c2ccccc21 (centres unmarked) [3-[7-(2-aminoethyl)-6,7,8,9-tetrahydropyrido[1,2-a]indol-10-yl]-4-(1-methyl-3-indolyl)-1H-pyrrole-2,5-dione hydrochloride]	20 nM
Cn1cc(C2=C(c3c4n(c5ccccc35)CC(CSC(=N)N)CC4)C(=O)NC2=O)c2ccccc21 (centres unmarked) [3-[7-(amidinothiomethyl)-6,7,8,9-tetrahydropyrido[1,2-a]indol-10-yl]-4-(1-methyl-3-indolyl)-1H-pyrrole-2,5-dione methanesulfonate]	10 nM

The next lines start with the values.

IC50	SMILES
15 nM	Cn1cc(C2=C(c3c4n(c5ccccc35)CC(CN)CC4)C(=O)NC2=O)c2ccccc21 (centres unmarked) [3-[7-(aminomethyl)-6,7,8,9-tetrahydropyrido[1,2-a]indol-10-yl]-4-(1-methyl-3-indolyl)-1H-pyrrole-2,5-dione]
8 nM	Cn1cc(C2=C(c3c4n(c5ccccc35)CCC(CN)C4)C(=O)NC2=O)c2ccccc21 (centres unmarked) [3-[8-(aminomethyl)-6,7,8,9-tetrahydropyrido[1,2-a]indol-10-yl]-4-(1-methyl-3-indolyl)-1H-pyrrole-2,5-dione hydrochloride]
60 nM	Cn1cc(C2=C(c3c4n(c5ccccc35)CCC(C(=N)N)C4)C(=O)NC2=O)c2ccccc21 (centres unmarked) [3-[8-amidino-6,7,8,9-tetrahydropyrido[1,2-a]indol-10-yl]-4-(1-methyl-3-indolyl)-1H-pyrrole-2,5-dione hydrochloride]
